Legend:
[1] = Solvate crystal growth in seeded solutions of Insecticide A in 2-heptanone/Solvent A mixtures (Example 2); type: physicochemical; settings: seeded with Solvent A solvate crystals, 22° C., one month
Experimental: Four solutions of 2-heptanone in Solvent A were prepared by mixing 1 part by weight of 2-heptanone with 2, 4, 6 and 8 parts by weight, respectively, of solvent A. Then Insecticide A was dissolved in each of these solutions by slowly adding 4.98 parts by weight of Insecticide A to well agitated 63.92 parts by weight of the respective solution at room temperature. It typically took 1 to 3 hours for complete dissolution. After Insecticide A was fully dissolved, each of the four samples was seeded with the Solvent A solvate crystals of Insecticide A prepared in Example 1. Then the four samples were kept at 22° C. for one month and afterwards were visually inspected for solvate crystal growth.

[2] = Precipitation from a solution of Insecticide A in Solvent A on continued agitation at room temperature (Example 1, comparative); type: physicochemical
Experimental: A solution of Insecticide A (pyripyropene derivative I) in Solvent A was prepared by slowly adding 4.98 parts by weight of Insecticide A to well agitated 63.92 parts by weight of Solvent A at room temperature. It typically took 1 to 3 hours for complete dissolution depending on the addition rate of Insecticide A and on the mode of agitation. After the agitation had been continued for additional approximately 12 hours the clear solution started to turn cloudy, indicating the precipitation of Solvent A solvate crystals of Insecticide A. Microscopy analysis confirmed that the precipitation was indeed crystalline.

In the case of `C[C@]1(COC(=O)C2CC2)[C@@H]2C[C@H](O)[C@@]3(C)Oc4cc(-c5cccnc5)oc(=O)c4[C@H](O)[C@@H]3[C@@]2(C)CC[C@@H]1OC(=O)C1CC1` [Insecticide A], the “solvate crystal growth (visual inspection)” value (from here on “solvate crystal growth”) ([1]; 2-heptanone to Solvent A ratio 1:2) is reported as “no crystal growth was observed”, the “solvate crystal growth” value ([1]; 2-heptanone to Solvent A ratio 1:4) is reported as “no crystal growth was observed” and the “solvate crystal growth” value ([1]; 2-heptanone to Solvent A ratio 1:6) is reported as “crystal growth was detected”. For the same compound, the “solvate crystal growth” value ([1]; 2-heptanone to Solvent A ratio 1:8) was “crystal growth was detected”, the “microscopy analysis of the precipitation” value ([2]; 4.98 parts Insecticide A in 63.92 parts Solvent A) was “crystalline” and the “additional agitation time after which the clear solution started to turn cloudy (precipitation of Solvent A solvate crystals)” value ([2]; 4.98 parts by weight Insecticide A in 63.92 parts by weight Solvent A, after complete dissolution) was “approximately 12 hours”.

From patent US20150031535A1, “Liquid concentrate formulation containing a pyripyropene insecticide III” (BASF SE, priority 2012, published 2015)
